Experimental data taken from PMC5909127, “Optimization of a “bump-and-hole” approach to allele-selective BET bromodomain inhibition” (Chemical Science, 2018).

Molecular target: BRD3 BD1 L/V (Homo sapiens, UniProt Q15059, L70V)
Assay: competitive AlphaLISA
Format: binding
Conditions: not given

Sequence of BRD3 BD1 L/V (Q15059 24-144 L70V limits assumed): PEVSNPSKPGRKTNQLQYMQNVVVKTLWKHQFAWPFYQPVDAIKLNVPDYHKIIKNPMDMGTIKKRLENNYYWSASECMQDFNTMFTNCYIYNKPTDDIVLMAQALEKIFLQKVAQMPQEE

Structure (SMILES)	IC50 [µM]
CC[C@@H](C(=O)N(CC)CC)[C@@H]1N=C(c2ccc(Cl)cc2)c2cc(OC)ccc2-n2c(C)nnc21 (relative stereo) [Compound 20]	0.501
CC[C@@H](C(=O)OC(C)(C)C)[C@@H]1N=C(c2ccc(Cl)cc2)c2ccc(OC)cc2-n2c(C)nnc21 [Compound 25]	5.01
COC(=O)CC1N=C(c2ccc(Cl)cc2)c2cc(OC)ccc2-n2c(C)nnc21 (centres unmarked) [Compound 1]	0.0631

Molecular target: BRDT BD2 WT (Homo sapiens, UniProt Q58F21)
Assay: competitive AlphaLISA
Format: binding
Conditions: not given

Structure (SMILES)	IC50 [µM]
CC[C@@H](C(=O)N(CC)CC)[C@@H]1N=C(c2ccc(Cl)cc2)c2cc(OC)ccc2-n2c(C)nnc21 (relative stereo) [Compound 20]	39.8
CC[C@@H](C(=O)OC(C)(C)C)[C@@H]1N=C(c2ccc(Cl)cc2)c2ccc(OC)cc2-n2c(C)nnc21 [Compound 25]	39.8

Molecular target: BRD2 BD2 L/V (Homo sapiens, UniProt P25440, L383V)
Assay: competitive AlphaLISA
Format: binding
Conditions: not given

Sequence of BRD2 BD2 L/V (P25440 344-455 L383V): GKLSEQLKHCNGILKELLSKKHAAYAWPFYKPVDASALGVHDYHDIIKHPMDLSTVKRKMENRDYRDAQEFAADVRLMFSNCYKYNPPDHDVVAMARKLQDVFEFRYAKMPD

Structure (SMILES)	IC50 [µM]
CC[C@@H](C(=O)N(CC)CC)[C@@H]1N=C(c2ccc(Cl)cc2)c2cc(OC)ccc2-n2c(C)nnc21 (relative stereo) [Compound 20]	1.58
COC(=O)CC1N=C(c2ccc(Cl)cc2)c2cc(OC)ccc2-n2c(C)nnc21 (centres unmarked) [Compound 1]	0.316

Molecular target: BRD3 BD2 WT (Homo sapiens, UniProt Q15059)
Assay: competitive AlphaLISA
Format: binding
Conditions: not given

Sequence of BRD3 BD2 WT (Q15059 306-416): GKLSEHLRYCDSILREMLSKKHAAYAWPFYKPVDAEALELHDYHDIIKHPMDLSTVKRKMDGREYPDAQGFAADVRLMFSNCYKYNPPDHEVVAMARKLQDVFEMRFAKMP

Structure (SMILES)	IC50 [µM]
CC[C@@H](C(=O)N(CC)CC)[C@@H]1N=C(c2ccc(Cl)cc2)c2cc(OC)ccc2-n2c(C)nnc21 (relative stereo) [Compound 20]	25.1
CC[C@@H](C(=O)OC(C)(C)C)[C@@H]1N=C(c2ccc(Cl)cc2)c2ccc(OC)cc2-n2c(C)nnc21 [Compound 25]	25.1

Test system: L/V BET bromodomains (BD1 and BD2 of BRD2, BRD3 and BRD4)
Assay: competitive AlphaLISA (Bio-JQ1 displacement)
Format: binding, human
Conditions: L/V minus WT

Structure (SMILES)	AlphaLISA pIC50 ± SD Δ
CC[C@@H](C(=O)N(CC)CC)[C@@H]1N=C(c2ccc(Cl)cc2)c2cc(OC)ccc2-n2c(C)nnc21 (relative stereo) [Compound 20]	1.2 ± 0.2
CC[C@@H](C(=O)OC(C)(C)C)[C@@H]1N=C(c2ccc(Cl)cc2)c2ccc(OC)cc2-n2c(C)nnc21 [Compound 25]	0.4 ± 0.2

Same assay, conditions: mean and SD of all somatic bromodomains; active enantiomer concentration

Structure (SMILES)	AlphaLISA pIC50 ± SD L/V
CC[C@@H](C(=O)N(CC)CC)[C@@H]1N=C(c2ccc(Cl)cc2)c2cc(OC)ccc2-n2c(C)nnc21 (relative stereo) [Compound 20]	5.8 ± 0.2
CC[C@@H](C(=O)OC(C)(C)C)[C@@H]1N=C(c2ccc(Cl)cc2)c2ccc(OC)cc2-n2c(C)nnc21 [Compound 25]	5.0 ± 0.2

Molecular target: BRDT BD1 WT (Homo sapiens, UniProt Q58F21)
Assay: competitive AlphaLISA
Format: binding
Conditions: not given

Structure (SMILES)	IC50 [µM]
CC[C@@H](C(=O)N(CC)CC)[C@@H]1N=C(c2ccc(Cl)cc2)c2cc(OC)ccc2-n2c(C)nnc21 (relative stereo) [Compound 20]	39.8
CC[C@@H](C(=O)OC(C)(C)C)[C@@H]1N=C(c2ccc(Cl)cc2)c2ccc(OC)cc2-n2c(C)nnc21 [Compound 25]	25.1
COC(=O)CC1N=C(c2ccc(Cl)cc2)c2cc(OC)ccc2-n2c(C)nnc21 (centres unmarked) [Compound 1]	0.501

Molecular target: BRD4 BD1 WT (Homo sapiens, UniProt O60885)
Assay: competitive AlphaLISA
Format: binding
Conditions: AlphaLISA pIC50 Value BRD4 BD1 WT

Structure (SMILES)	IC50 [µM]
CC[C@@H](C(=O)N(CC)CC)[C@@H]1N=C(c2ccc(Cl)cc2)c2cc(OC)ccc2-n2c(C)nnc21 (relative stereo) [Compound 20]	25.1
CC[C@@H](C(=O)OC(C)(C)C)[C@@H]1N=C(c2ccc(Cl)cc2)c2ccc(OC)cc2-n2c(C)nnc21 [Compound 25]	15.8

Molecular target: BRDT BD1 L/V (Homo sapiens, UniProt Q58F21, L63V)
Assay: competitive AlphaLISA
Format: binding
Conditions: not given

Structure (SMILES)	IC50 [µM]
CC[C@@H](C(=O)N(CC)CC)[C@@H]1N=C(c2ccc(Cl)cc2)c2cc(OC)ccc2-n2c(C)nnc21 (relative stereo) [Compound 20]	6.31

Molecular target: BRD4 BD2 WT (Homo sapiens, UniProt O60885)
Assay: competitive AlphaLISA
Format: binding
Conditions: not given

Structure (SMILES)	IC50 [µM]
CC[C@@H](C(=O)N(CC)CC)[C@@H]1N=C(c2ccc(Cl)cc2)c2cc(OC)ccc2-n2c(C)nnc21 (relative stereo) [Compound 20]	31.6
CC[C@@H](C(=O)OC(C)(C)C)[C@@H]1N=C(c2ccc(Cl)cc2)c2ccc(OC)cc2-n2c(C)nnc21 [Compound 25]	25.1

Test system: not listed separately
Assay: Intrinsic Clearance
Conditions: mouse liver microsomes

Structure (SMILES)	CL int [ml min^–1 g^–1]
CC[C@@H](C(=O)N(CC)CC)[C@@H]1N=C(c2ccc(Cl)cc2)c2cc(OC)ccc2-n2c(C)nnc21 (relative stereo) [Compound 20]	>50
CC[C@@H](C(=O)OC(C)(C)C)[C@@H]1N=C(c2ccc(Cl)cc2)c2ccc(OC)cc2-n2c(C)nnc21 [Compound 25]	31.0
COC(=O)CC1N=C(c2ccc(Cl)cc2)c2cc(OC)ccc2-n2c(C)nnc21 (centres unmarked) [Compound 1]	<0.5

Molecular target: WT BET bromodomains (BD1 and BD2 of BRD2, BRD3 and BRD4)
Assay: competitive AlphaLISA (Bio-JQ1 displacement)
Format: binding, human
Conditions: mean and SD of all somatic bromodomains; active enantiomer concentration

Structure (SMILES)	AlphaLISA pIC50 ± SD WT
CC[C@@H](C(=O)N(CC)CC)[C@@H]1N=C(c2ccc(Cl)cc2)c2cc(OC)ccc2-n2c(C)nnc21 (relative stereo) [Compound 20]	4.6 ± 0.1
CC[C@@H](C(=O)OC(C)(C)C)[C@@H]1N=C(c2ccc(Cl)cc2)c2ccc(OC)cc2-n2c(C)nnc21 [Compound 25]	4.6 ± 0.1

Molecular target: BRD4 BD2 L/V (Homo sapiens, UniProt O60885, L387V)
Assay: competitive AlphaLISA
Format: binding
Conditions: not given

Structure (SMILES)	IC50 [µM]
CC[C@@H](C(=O)N(CC)CC)[C@@H]1N=C(c2ccc(Cl)cc2)c2cc(OC)ccc2-n2c(C)nnc21 (relative stereo) [Compound 20]	3.16
CC[C@@H](C(=O)OC(C)(C)C)[C@@H]1N=C(c2ccc(Cl)cc2)c2ccc(OC)cc2-n2c(C)nnc21 [Compound 25]	20

Molecular target: BRD4 BD1 L/V (Homo sapiens, UniProt O60885, L94V)
Assay: competitive AlphaLISA
Format: binding
Conditions: AlphaLISA pIC50 Value BRD4 BD1 L/V

Structure (SMILES)	IC50 [µM]
CC[C@@H](C(=O)N(CC)CC)[C@@H]1N=C(c2ccc(Cl)cc2)c2cc(OC)ccc2-n2c(C)nnc21 (relative stereo) [Compound 20]	1.26
CC[C@@H](C(=O)OC(C)(C)C)[C@@H]1N=C(c2ccc(Cl)cc2)c2ccc(OC)cc2-n2c(C)nnc21 [Compound 25]	7.94

Molecular target: BRD2 BD1 L/V (Homo sapiens, UniProt P25440, L110V)
Assay: competitive AlphaLISA
Format: binding
Conditions: not given

Sequence of BRD2 BD1 L/V (P25440 71-176 L110V limits assumed): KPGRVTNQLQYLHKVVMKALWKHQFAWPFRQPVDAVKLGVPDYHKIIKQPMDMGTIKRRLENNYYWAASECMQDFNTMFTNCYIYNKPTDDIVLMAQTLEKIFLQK

Structure (SMILES)	IC50 [µM]
CC[C@@H](C(=O)N(CC)CC)[C@@H]1N=C(c2ccc(Cl)cc2)c2cc(OC)ccc2-n2c(C)nnc21 (relative stereo) [Compound 20]	2
CC[C@@H](C(=O)OC(C)(C)C)[C@@H]1N=C(c2ccc(Cl)cc2)c2ccc(OC)cc2-n2c(C)nnc21 [Compound 25]	10

Molecular target: BRD3 BD2 L/V (Homo sapiens, UniProt Q15059, L345V)
Assay: competitive AlphaLISA
Format: binding
Conditions: not given

Sequence of BRD3 BD2 L/V (Q15059 306-416 L345V limits assumed): as the sequence (Q15059 306-416) above, with L40V counted along it

Structure (SMILES)	IC50 [µM]
CC[C@@H](C(=O)N(CC)CC)[C@@H]1N=C(c2ccc(Cl)cc2)c2cc(OC)ccc2-n2c(C)nnc21 (relative stereo) [Compound 20]	1.58
CC[C@@H](C(=O)OC(C)(C)C)[C@@H]1N=C(c2ccc(Cl)cc2)c2ccc(OC)cc2-n2c(C)nnc21 [Compound 25]	10
COC(=O)CC1N=C(c2ccc(Cl)cc2)c2cc(OC)ccc2-n2c(C)nnc21 (centres unmarked) [Compound 1]	0.501

Molecular target: BRD2 BD2 WT (Homo sapiens, UniProt P25440)
Assay: competitive AlphaLISA
Format: binding
Conditions: not given

Sequence of BRD2 BD2 WT (P25440 344-455): as the sequence (P25440 344-455 L383V) above, with V40L counted along it

Structure (SMILES)	IC50 [µM]
CC[C@@H](C(=O)N(CC)CC)[C@@H]1N=C(c2ccc(Cl)cc2)c2cc(OC)ccc2-n2c(C)nnc21 (relative stereo) [Compound 20]	15.8
CC[C@@H](C(=O)OC(C)(C)C)[C@@H]1N=C(c2ccc(Cl)cc2)c2ccc(OC)cc2-n2c(C)nnc21 [Compound 25]	20
COC(=O)CC1N=C(c2ccc(Cl)cc2)c2cc(OC)ccc2-n2c(C)nnc21 (centres unmarked) [Compound 1]	0.316

Test system: not listed separately
Assay: Plasma Half-life
Conditions: BALB/c, mouse, pH 7.4

Structure (SMILES)	half-life at 50 µM [h]
CC[C@@H](C(=O)N(CC)CC)[C@@H]1N=C(c2ccc(Cl)cc2)c2cc(OC)ccc2-n2c(C)nnc21 (relative stereo) [Compound 20]	> 3
CC[C@@H](C(=O)OC(C)(C)C)[C@@H]1N=C(c2ccc(Cl)cc2)c2ccc(OC)cc2-n2c(C)nnc21 [Compound 25]	> 3
COC(=O)CC1N=C(c2ccc(Cl)cc2)c2cc(OC)ccc2-n2c(C)nnc21 (centres unmarked) [Compound 1]	0.9

Test system: not listed separately
Assay: in vitro
Conditions: PAMPA, pH 7.4

Structure (SMILES)	Papp [×10⁻⁶ cm/s]
COC(=O)CC1N=C(c2ccc(Cl)cc2)c2cc(OC)ccc2-n2c(C)nnc21 (centres unmarked) [Compound 1]	14.9

Molecular target: BRDT BD2 L/V (Homo sapiens, UniProt Q58F21, L306V)
Assay: competitive AlphaLISA
Format: binding
Conditions: not given

Structure (SMILES)	IC50 [µM]
CC[C@@H](C(=O)N(CC)CC)[C@@H]1N=C(c2ccc(Cl)cc2)c2cc(OC)ccc2-n2c(C)nnc21 (relative stereo) [Compound 20]	6.31
COC(=O)CC1N=C(c2ccc(Cl)cc2)c2cc(OC)ccc2-n2c(C)nnc21 (centres unmarked) [Compound 1]	1

Molecular target: BRD2 BD1 WT (Homo sapiens, UniProt P25440)
Assay: competitive AlphaLISA
Format: binding
Conditions: not given

Sequence of BRD2 BD1 WT (P25440 71-176): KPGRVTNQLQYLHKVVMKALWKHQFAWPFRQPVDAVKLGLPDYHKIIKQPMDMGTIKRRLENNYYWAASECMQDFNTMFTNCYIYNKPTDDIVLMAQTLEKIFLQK

Structure (SMILES)	IC50 [µM]
CC[C@@H](C(=O)N(CC)CC)[C@@H]1N=C(c2ccc(Cl)cc2)c2cc(OC)ccc2-n2c(C)nnc21 (relative stereo) [Compound 20]	31.6
CC[C@@H](C(=O)OC(C)(C)C)[C@@H]1N=C(c2ccc(Cl)cc2)c2ccc(OC)cc2-n2c(C)nnc21 [Compound 25]	39.8
COC(=O)CC1N=C(c2ccc(Cl)cc2)c2cc(OC)ccc2-n2c(C)nnc21 (centres unmarked) [Compound 1]	0.316

Molecular target: BRD3 BD1 WT (Homo sapiens, UniProt Q15059)
Assay: competitive AlphaLISA
Format: binding
Conditions: not given

Sequence of BRD3 BD1 WT (Q15059 24-144): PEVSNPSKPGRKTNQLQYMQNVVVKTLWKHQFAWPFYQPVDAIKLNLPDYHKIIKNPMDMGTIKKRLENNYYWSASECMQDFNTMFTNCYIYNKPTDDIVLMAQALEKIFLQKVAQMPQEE

Structure (SMILES)	IC50 [µM]
CC[C@@H](C(=O)N(CC)CC)[C@@H]1N=C(c2ccc(Cl)cc2)c2cc(OC)ccc2-n2c(C)nnc21 (relative stereo) [Compound 20]	20
CC[C@@H](C(=O)OC(C)(C)C)[C@@H]1N=C(c2ccc(Cl)cc2)c2ccc(OC)cc2-n2c(C)nnc21 [Compound 25]	20
COC(=O)CC1N=C(c2ccc(Cl)cc2)c2cc(OC)ccc2-n2c(C)nnc21 (centres unmarked) [Compound 1]	0.126
